From ChEMBL document CHEMBL1135861, “The discovery of novel small molecule non-peptide gonadotropin releasing hormone (GnRH) receptor antagonists” (Bioorg Med Chem Lett, 2002) come the findings set out here.

The target in experiment [1] is T1, Gonadotropin-releasing hormone receptor (Rattus norvegicus, UniProt P30969).
T1 sequence (P30969 whole entry): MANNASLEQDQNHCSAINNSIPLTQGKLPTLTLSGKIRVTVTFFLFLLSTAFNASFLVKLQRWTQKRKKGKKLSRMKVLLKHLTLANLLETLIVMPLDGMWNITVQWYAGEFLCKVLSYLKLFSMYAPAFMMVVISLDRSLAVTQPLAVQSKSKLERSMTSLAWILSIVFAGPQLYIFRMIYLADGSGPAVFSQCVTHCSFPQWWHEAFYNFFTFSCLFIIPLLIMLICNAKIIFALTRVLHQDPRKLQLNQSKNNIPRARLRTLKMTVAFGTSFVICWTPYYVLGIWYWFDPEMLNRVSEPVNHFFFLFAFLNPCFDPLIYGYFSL
Description: Binding affinity to rat gonadotropin-releasing hormone receptor.

In experiment [2] the target is T2, Gonadotropin-releasing hormone receptor (Homo sapiens, UniProt P30968).
T2 sequence (P30968 whole entry): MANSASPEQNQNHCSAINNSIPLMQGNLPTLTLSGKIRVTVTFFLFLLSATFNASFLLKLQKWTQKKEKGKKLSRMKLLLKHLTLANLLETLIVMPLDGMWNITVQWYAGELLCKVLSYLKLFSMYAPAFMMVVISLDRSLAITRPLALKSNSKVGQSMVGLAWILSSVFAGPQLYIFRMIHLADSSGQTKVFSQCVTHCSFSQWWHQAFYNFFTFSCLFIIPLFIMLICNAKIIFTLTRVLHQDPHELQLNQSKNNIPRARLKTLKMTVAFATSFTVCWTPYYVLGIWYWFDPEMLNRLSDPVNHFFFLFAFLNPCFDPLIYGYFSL
The experiment in a line: In vitro binding affinity to human gonadotropin-releasing hormone receptor.

With `Cc1cc2c(cc1Cc1ccc(C(=O)NCc3ccc(CN(C)C)cc3)o1)C(C)(C)CCC2(C)C`, the Ki in experiment [1] is 140 nM; in experiment [2], 79 nM.
Regarding `Cc1cc2c(cc1Cc1ccc(C(=O)NCC3CCN(C(=N)N)CC3)o1)C(C)(C)CCC2(C)C`, the inhibition constant Ki is 2040 nM in experiment [1] and 220 nM in experiment [2].
On the same counts, the results for `Cc1cc2c(cc1Cc1ccc(C(=O)NCC3CCCCC3)o1)C(C)(C)CCC2(C)C` are 1550 nM and 180 nM.
On the same counts, the results for `Cc1cc2c(cc1Cc1ccc(C(=O)NCC3CCC(CNCc4c(C)noc4C)CC3)o1)C(C)(C)CCC2(C)C` (stereo not drawn) are 1200 nM and 180 nM.
As to `Cc1cc2c(cc1Cc1ccc(C(=O)NC[C@H]3CC[C@H](CNC(=N)N)CC3)o1)C(C)(C)CCC2(C)C`, the Ki was found to be 385 nM in experiment [1] and 16 nM in experiment [2].
With `Cc1cc2c(cc1Cc1ccc(C(=O)NC[C@H]3CC[C@@H](CNC(=N)N)CC3)o1)C(C)(C)CCC2(C)C`, the Ki stood at 730 nM in experiment [1] and 40 nM in experiment [2].
Taken in the same sequence, the figures for `Cc1cc2c(cc1Cc1ccc(C(=O)NCC3CCC(C#N)CC3)o1)C(C)(C)CCC2(C)C` (stereo not drawn) were 560 nM and 17 nM.
On the same counts, the results for `CCOC(=O)[C@H]1CC[C@H](CNC(=O)c2ccc(Cc3cc4c(cc3C)C(C)(C)CCC4(C)C)o2)CC1` are 2730 nM and 51 nM.
Taken in the same sequence, the figures for `Cc1ccc(CNC(=O)c2ccc(Cc3cc4c(cc3C)C(C)(C)CCC4(C)C)o2)cc1` were 60 nM and 83 nM.
With `Cc1cc2c(cc1Cc1ccc(C(=O)NCc3ccc(CN)cc3)o1)C(C)(C)CCC2(C)C`, the Ki in experiment [1] worked out at 280 nM; in experiment [2], 140 nM.
On the same counts, the results for `Cc1cc2c(cc1Cc1ccc(C(=O)NCc3ccccc3)o1)C(C)(C)CCC2(C)C` are 240 nM and 102 nM.
Turning to `Cc1cc2c(cc1Cc1ccc(C(=O)NC[C@H]3CC[C@H](C(N)=O)CC3)o1)C(C)(C)CCC2(C)C`, the Ki stood at 270 nM in experiment [1] and 13 nM in experiment [2].
Taken in the same sequence, the figures for `Cc1cc2c(cc1Cc1ccc(C(=O)NCc3cccc(CN)c3)o1)C(C)(C)CCC2(C)C` were 94 nM and 91 nM.
On the same counts, the results for `Cc1cc2c(cc1Cc1ccc(C(=O)NCC3CCC(CN)CC3)o1)C(C)(C)CCC2(C)C` (stereo not drawn) are 730 nM and 42 nM.
`Cc1cc2c(cc1Cc1ccc(C(=O)NCC3CCC(CNC(=O)C(F)(F)F)CC3)o1)C(C)(C)CCC2(C)C` (stereo not drawn): the Ki in experiment [1] worked out at 2720 nM; in experiment [2] it was 66 nM.
In the case of `Cc1cc2c(cc1Cc1ccc(C(=O)NCC3CCNCC3)o1)C(C)(C)CCC2(C)C`, the Ki in experiment [1] came out at 5210 nM; in experiment [2], 700 nM.
Taken in the same sequence, the figures for `Cc1cc2c(cc1Cc1ccc(C(=O)NCC3CCC(CNC(=N)N)CC3)o1)C(C)(C)CCC2(C)C` (stereo not drawn) were 520 nM and 40 nM.
Consider `Cc1cc2c(cc1Cc1ccc(C(=O)NCC3CCC(CNCc4cc(=O)[nH]c(=O)[nH]4)CC3)o1)C(C)(C)CCC2(C)C` (stereo not drawn), for which the values for the Ki in experiment [1] and in experiment [2] were 865 nM and 24 nM, respectively.
Taken in the same sequence, the figures for `Cc1cc2c(cc1Cc1ccc(C(=O)NC[C@H]3CC[C@H](C(=O)O)CC3)o1)C(C)(C)CCC2(C)C` were 3000 nM and 250 nM.
Taken in the same sequence, the figures for `Cc1cc2c(cc1Cc1ccc(C(=O)NCC3CCN(C(=O)OC(C)(C)C)CC3)o1)C(C)(C)CCC2(C)C` were 3260 nM and 54 nM.
Turning to `Cc1cnc(CNC(=O)c2ccc(Cc3cc4c(cc3C)C(C)(C)CCC4(C)C)o2)cn1`, the Ki turned out to be 55 nM in experiment [1] and 56 nM in experiment [2].
Taken in the same sequence, the figures for `COC(=O)[C@H]1CC[C@H](CNC(=O)c2ccc(Cc3cc4c(cc3C)C(C)(C)CCC4(C)C)o2)CC1` were 830 nM and 24 nM.
As to `Cc1cc2c(cc1Cc1ccc(C(=O)NCC3CCCC(CN)C3)o1)C(C)(C)CCC2(C)C` (stereo not drawn), the Ki in experiment [1] worked out at 890 nM; in experiment [2], 174 nM.
With `Cc1cc2c(cc1Cc1ccc(C(=O)NCC3CCCC(CNC(=O)C(F)(F)F)C3)o1)C(C)(C)CCC2(C)C` (stereo not drawn), the Ki amounted to 250 nM in experiment [1] and 20 nM in experiment [2].
